# Data: article PMC12516379, “Rotamer-Controlled Self-Immolative Linkers Enable Tunable Release of Neurosteroid Oxime Prodrugs” (ACS Medicinal Chemistry Letters, 2025)
# Experiments:
# [1] = Aqueous solubility by visual inspection in acetate buffer (pH 5); conditions: for solubility: sodium acetate buffer, pH 5, aqueous buffer, thermodynamic from solid; for Stability in aqueous media during solubility assessment, in words: aqueous media (acetate buffer)
# Method: For the solubility assessment, acetate buffer (pH 5) was selected as the media of choice to ensure prodrug stability during analysis.
# High aqueous solubility was determined by visual inspection of 5 mg solid material in 0.5 mL
# sodium acetate buffer solution. This media was selected to ensure stability of prodrugs during
# dissolution in 50 mg/mL aqueous media.
# [2] = Plasma stability assay at 37 °C via LC-MS/MS, human plasma; type: in vitro ADME; conditions: for half-life at 3 µM: human, plasma;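 on all read-outs here: prodrugs at 3 µM incubated in human plasma at 37 °C, intact prodrug quantified by LC-MS/MS over time, values are means of duplicate runs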
# Method: To address this, prodrug stability was further evaluated in human plasma at 37 °C using liquid chromatography–tandem mass spectrometry (LC-MS/MS). For direct comparison, a parallel screen was conducted in PBS under identical conditions (Table ). To prevent premature degradation prior to LC-MS/MS analysis, acetonitrile containing formic acid was used as a quenching solution to acidify and stabilize the prodrugs in vials. […] This limitation in detection, along with the need for a more uniform and broadly applicable assessment across all compounds, prompted us to monitor the formation of the parent oxime as an alternative readout.
# Stability experiments in human plasma and PBS were performed via liquid chromatography-tandem mass spectrometry (LC-MS/MS) to determine and compare rate of cleavage of progesterone prodrugs as well as selected allopregnanolone prodrugs (3 µM) when incubated at 37 °C. All experiments were performed in duplicate and results are presented as the average of two experimental replicates.
# [3] = Stability in acetate buffer pH 5.0 at room temperature via HPLC (UV); type: physicochemical
# Method: (§1) Stability studies were conducted in PBS and acetate buffer utilizing high performance liquid chromatography for potential drug storage considerations. […]
# (§2) All experiments were performed in duplicate and results are presented as the average of two experimental replicates.
# (§3) 1.1 Aqueous Stability in PBS and Acetate Buffer via HPLC
# (§4) Material and Instrumentation
# (§5) HPLC grade acetonitrile (MeCN) […] HPLC grade water (H 2O), and formic acid (FA) were purchased from Fisher Scientific.
# (§6) Puradisc 4 mm PTFE (0.45 μm) syringe filters from Cytiva. Gibco ® Dulbecco’s phosphate-buffered saline (DPBS 1X, no calcium, no magnesium, pH = 7.03) and acetate buffer (pH = 5.0, 10 mM) were purchased directly from Thermo Fisher Scientific and Cytiva, respectively.
# (§7) Aqueous stability experiments were performed on an Agilent 1100 HPLC equipped with an Agilent G1315B diode array detector, an Agilent G1316A heated column compartment, and a Zorbax Eclipse XDB-C18 (4.6 x 150 mm, 5 μm) column.
# (§8) Procedure for Aqueous Stability Experiments
# (§9) Each sample was first weighed out in two separate 2.0 mL vials using an analytical balance.
# (§10) Unless otherwise specified, the test compounds were then dissolved in the aqueous media (PBS or acetate buffer) at a standard concentration of 1 mg/mL. All mixtures were subsequently sonicated for approximately 30 sec. […]
# (§11) min), precipitates observed in sample solutions were filtered with a PTFE syringe filter prior to analysis. Immediately after sample preparation, injection by the HPLC autosampler was performed, which was recorded as the initial time point (t = 0 min). Solutions were then kept in the autosampler at RT and reinjected at designated intervals without additional filtration or sample modification. Remaining prodrug was defined by the area under the curve (AUC) at 254 nm. Aqueous stability was ascertained by calculating the percentage of the parent compound remaining after each time point. Linear regression of the time (x-axis) vs. ln(%remaining) (y-axis) plot afforded the rate constant k (slope = -k). Pseudo first-order half-lives were then calculated by the following equation: t1/2 = 0.693/k.
# [4] = Stability in PBS at room temperature via HPLC (UV); type: physicochemical; conditions: phosphate-buffered saline (DPBS)
# Method: as §1, §2, §3, §4, §5, §6, §7, §8, §9, §10, §11
# [5] = PBS stability assay at 37 °C via LC-MS/MS; type: physicochemical; conditions: for half-life at 3 µM / remaining at 2 h, 3 µM: phosphate-buffered saline (DPBS); for half-life at 3 µM: pH 7.03, PBS; for PBS, 37 °C %rem. at 2h (Table S23) / half-life at 3 µM / remaining at 2 h, 3 µM: 37 °C; for remaining at 2 h, 3 µM: pH 7.03, read-out: % Remaining @ 2h, PBS, 37 °C (Tables S25, S26); for PBS, 37 °C %rem. at 2h (Table S23) / remaining at 2 h, 3 µM / Prodrug stability / self-immolation in buffer, in words: PBS
# [6] = 3 µM, LC-MS/MS, read-out: t1/2 in human plasma at 37 °C (Tables S10-S13, S18) (converted)
# [7] = LC-MS/MS, read-out: Half-life (t½) Plasma 37°C (converted)
# [8] = read-out: Plasma, 37 °C t½ (Table S23) (converted)
# [9] = pH 5, acetate buffer pH 5.0, RT, 1 mg/mL, HPLC 254 nm, read-out: t1/2 in acetate buffer at RT (Tables S5-S8) (converted)
# [10] = pH 5, acetate buffer pH 5.0, rt, HPLC (UV), read-out: Half-life (t½) pH 5.0 rt (converted)
# [11] = pH 5, acetate buffer pH 5.0, rt, read-out: t½: pH 5.0, rt (Table S23) (converted)
# [12] = pH 7.03, DPBS pH 7.03, RT, 1 mg/mL, HPLC 254 nm, read-out: t1/2 in PBS buffer at RT (Tables S1-S4) (converted)
# [13] = pH 7.03, PBS, rt, HPLC (UV), read-out: Half-life (t½) PBS rt (converted)
# [14] = pH 7.03, PBS, rt, read-out: t½: PBS, rt (Table S23) (converted)
# [15] = 3 µM, LC-MS/MS, read-out: t1/2 in PBS at 37 °C (Tables S14-S17) (converted)
# [16] = LC-MS/MS, read-out: Half-life (t½) PBS 37°C (converted)
# [17] = read-out: PBS, 37 °C t½ (Table S23) (converted)
# [18] = read-out: t1/2 (h) PBS, 37 °C (Tables S25, S26) (converted)
# [19] = unit not given (h in Table S23), read-out: t1/2 of allopregnanolone prodrugs in human plasma at 37 °C (Table S21) (converted)
# [20] = unit not given (h in Table S23), read-out: t1/2 of allopregnanolone prodrugs in PBS at 37 °C (Table S22) (converted)
SMILES,solubility [1] [µg/mL],"Plasma, 37 °C %rem. at 2h (Table S23) [2]","half-life at 3 µM [2, 7] [h]","half-life at 3 µM [2, 8] [h]","half-life at 1 mg/mL [3, 9] [h]","half-life at 1 mg/mL [3, 11] [h]","half-life at 1 mg/mL [4, 12] [h]","half-life at 1 mg/mL [4, 14] [h]","PBS, 37 °C %rem. at 2h (Table S23) [5] [%]","half-life at 3 µM [5, 15] [h]","half-life at 3 µM [5, 16] [h]","half-life at 3 µM [5, 17] [h]","half-life at 3 µM [2, 19] [h]","half-life at 3 µM [5, 20] [h]",further results
CNCCN(C(=O)O/N=C(\C)[C@H]1CC[C@H]2[C@@H]3CCC4=CC(=O)CC[C@]4(C)[C@H]3CC[C@]12C)C(C)C.O=C(O)C(F)(F)F [20c],> 10000,47%,1.59,1.59,> 168,> 168,19.7 ± 0.38,19.7,53,3.27,3.27,3.27,–,–,"half-life at 3 µM [2, 6]: 1.59 h; half-life at 1 mg/mL [3, 10]: > 168 h; half-life at 1 mg/mL [4, 13]: 19.7 h; half-life at 3 µM [5, 18]: 3.27 h; remaining at 2 h, 3 µM [5]: 53%"
CNCCN(C(=O)O/N=C(\C)[C@H]1CC[C@H]2[C@@H]3CCC4=CC(=O)CC[C@]4(C)[C@H]3CC[C@]12C)C1CCC1.O=C(O)C(F)(F)F [20d],> 10000,59%,2.67,2.67,> 168,> 168,11.8 ± 0.51,11.8,44,2.32,2.32,2.32,–,–,"half-life at 3 µM [2, 6]: 2.67 h; half-life at 1 mg/mL [3, 10]: > 168 h; half-life at 1 mg/mL [4, 13]: 11.8 h; half-life at 3 µM [5, 18]: 2.32 h; remaining at 2 h, 3 µM [5]: 44%"
CNCCN(C(=O)O/N=C(\C)[C@H]1CC[C@H]2[C@@H]3CCC4=CC(=O)CC[C@]4(C)[C@H]3CC[C@]12C)C1CCCC1.O=C(O)C(F)(F)F [20e],> 10000,76%,3.09,4.02,> 168,> 168,10.7 ± 0.15,10.7,34,1.74,1.74,1.74,–,–,"half-life at 3 µM [2, 6]: 4.02 h; half-life at 1 mg/mL [3, 10]: > 168 h; half-life at 1 mg/mL [4, 13]: 10.7 h; half-life at 3 µM [5, 18]: 1.74 h; remaining at 2 h, 3 µM [5]: 34%"
CNCCN(CCN1CCOCC1)C(=O)O/N=C(\C)[C@H]1CC[C@H]2[C@@H]3CCC4=CC(=O)CC[C@]4(C)[C@H]3CC[C@]12C.O=C(O)C(F)(F)F [20j],> 10000,–,–,–,99.4,99.4,21.77 ± 0.19,21.8,–,–,–,–,–,–,"half-life at 1 mg/mL [3, 10]: 99.4 h; half-life at 1 mg/mL [4, 13]: 21.8 h"
C/C(=N\OC(=O)N(C)[C@H](C)[C@@H]1CCCN1)[C@H]1CC[C@H]2[C@@H]3CCC4=CC(=O)CC[C@]4(C)[C@H]3CC[C@]12C.O=C(O)C(F)(F)F [20p],–,–,–,–,–,–,–,–,–,0.61,–,–,–,–,"Stability in aqueous media during solubility assessment, in words [1]: poor stability; t1/2 in human plasma at 37 °C (Tables S10-S13, S18) ([2]; 3 µM, LC-MS/MS): unstable during; Prodrug stability / self-immolation in buffer, in words [5]: unstable compound"
CNC1(CN(C)C(=O)O/N=C(\C)[C@H]2CC[C@H]3[C@@H]4CCC5=CC(=O)CC[C@]5(C)[C@H]4CC[C@]23C)CC1 [20s],> 10000,stable,–,> 24,–,–,–,–,93,18.5,–,18.5,–,–,"Half-life (t½) Plasma 37°C ([2]; LC-MS/MS): stable; half-life at 3 µM [2, 6]: > 24 h; Prodrug stability / self-immolation in buffer, in words [5]: complete inhibition of cyclization"
C/C(=N\OC(=O)N(CCN)CCN)[C@H]1CC[C@H]2[C@@H]3CCC4=CC(=O)CC[C@]4(C)[C@H]3CC[C@]12C [20w],> 10000,–,–,–,> 168,> 168,10.1 ± 0.41,10.1,–,–,–,–,–,–,–
CNCCN(CCNC)C(=O)O/N=C(\C)[C@H]1CC[C@H]2[C@@H]3CCC4=CC(=O)CC[C@]4(C)[C@H]3CC[C@]12C.Cl.Cl [20x],–,–,–,–,72.2,> 168,1.51 ± 0.05,1.51,–,–,–,–,–,–,"Stability in aqueous media during solubility assessment, in words [1]: poor stability"
CNCCN(C)C(=O)O/N=C(\C)[C@H]1CC[C@H]2[C@@H]3CCC4C[C@H](O)CC[C@]4(C)[C@H]3CC[C@]12C.O=C(O)C(F)(F)F (stereo partly shown) [21a],> 5000,13%,1.27,0.59,–,–,–,–,88,–,9.51,12.2,0.59,12.2,–
CNCCN(C(=O)O/N=C(\C)[C@H]1CC[C@H]2[C@@H]3CCC4C[C@H](O)CC[C@]4(C)[C@H]3CC[C@]12C)C1CC1.O=C(O)C(F)(F)F (stereo partly shown) [21b],> 5000,16%,0.73,0.73,–,–,–,–,73,–,4.08,4.08,0.73,4.08,–
CNCCN(C(=O)O/N=C(\C)[C@H]1CC[C@H]2[C@@H]3CCC4C[C@H](O)CC[C@]4(C)[C@H]3CC[C@]12C)C(C)C.O=C(O)C(F)(F)F (stereo partly shown) [21c],> 5000,16%,0.51,0.76,–,–,–,–,68,–,3.78,3.78,0.51,3.78,–
CNCCN(C(=O)O/N=C(\C)[C@H]1CC[C@H]2[C@@H]3CCC4C[C@H](O)CC[C@]4(C)[C@H]3CC[C@]12C)C1CCC1.O=C(O)C(F)(F)F (stereo partly shown) [21d],> 5000,16%,0.76,0.76,–,–,–,–,38,–,1.69,1.69,0.76,1.69,–
CNCCN(CCn1ccnc1)C(=O)O/N=C(\C)[C@H]1CC[C@H]2[C@@H]3CCC4C[C@H](O)CC[C@]4(C)[C@H]3CC[C@]12C (stereo partly shown) [21k],> 5000,14%,–,0.81,–,–,–,–,62,–,–,4.12,0.81,4.12,–
C/C(=N\OC(=O)N(C)C[C@@H]1CCCN1)[C@H]1CC[C@H]2[C@@H]3CCC4C[C@H](O)CC[C@]4(C)[C@H]3CC[C@]12C (stereo partly shown) [21l],> 5000,2%,0.36,0.36,–,–,–,–,16,–,0.94,0.94,0.36,0.94,–
